# Reference: PubChem BioAssay AID1963863 (Molecular Pharmacology Branch, DTP, NCI, 2024)
# pIC50: −log10 of the molar value.
# Tested on: 931267-113-T-J1-PDC KRAS spheroid with HUVEC/MSC, viability
# Assay: Anticancer human tumor 931267-113-T-J1-PDC patient-derived colon adenocarcinoma cell line growth inhibition [KRAS2]
# Conditions: for viability, T/C: stronger effect = lower value
# How it was run: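 KRAS-mutant tumor cells were grown as spheroids with HUVEC endothelial cells and human MSCs as stroma. Targeted agents were tested alone and with KRAS pathway inhibitors. Doses started at or near clinical Cmax, or 10 microM, descending half-log.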
# [1] = curve of first compound, second compound 0.1 µM
# [2] = curve of first compound, second compound 0.316 µM
# [3] = curve of first compound, second compound 1 µM
# [4] = curve of first compound, second compound 3.16 µM
# [5] = curve of first compound, second compound 10 µM
# [6] = second compound 0.1 µM, first compound 0.0316 µM
# [7] = second compound 0.1 µM, first compound 0.1 µM
# [8] = second compound 0.1 µM, first compound 0.316 µM
# [9] = second compound 0.1 µM, first compound 1 µM
# [10] = second compound 0.1 µM, first compound 3.16 µM
# [11] = second compound 0.1 µM, first compound 10 µM
# [12] = second compound 0.316 µM, first compound 0.0316 µM
# [13] = second compound 0.316 µM, first compound 0.1 µM
# [14] = second compound 0.316 µM, first compound 0.316 µM
# [15] = second compound 0.316 µM, first compound 1 µM
# [16] = second compound 0.316 µM, first compound 3.16 µM
# [17] = second compound 0.316 µM, first compound 10 µM
# [18] = second compound 1 µM, first compound 0.0316 µM
# [19] = second compound 1 µM, first compound 0.1 µM
# [20] = second compound 1 µM, first compound 0.316 µM
# [21] = second compound 1 µM, first compound 1 µM
# [22] = second compound 1 µM, first compound 3.16 µM
# [23] = second compound 1 µM, first compound 10 µM
# [24] = second compound 3.16 µM, first compound 0.0316 µM
# [25] = second compound 3.16 µM, first compound 0.1 µM
# [26] = second compound 3.16 µM, first compound 0.316 µM
# [27] = second compound 3.16 µM, first compound 1 µM
# [28] = second compound 3.16 µM, first compound 3.16 µM
# [29] = second compound 3.16 µM, first compound 10 µM
# [30] = second compound 10 µM, first compound 0.0316 µM
# [31] = second compound 10 µM, first compound 0.1 µM
# [32] = second compound 10 µM, first compound 0.316 µM
# [33] = second compound 10 µM, first compound 1 µM
# [34] = second compound 10 µM, first compound 3.16 µM
# [35] = second compound 10 µM, first compound 10 µM
# [36] = second compound 0.1 µM, first compound 0.000316 µM
# [37] = second compound 0.1 µM, first compound 0.001 µM
# [38] = second compound 0.1 µM, first compound 0.00316 µM
# [39] = second compound 0.1 µM, first compound 0.01 µM
# [40] = second compound 0.316 µM, first compound 0.000316 µM
# [41] = second compound 0.316 µM, first compound 0.001 µM
# [42] = second compound 0.316 µM, first compound 0.00316 µM
# [43] = second compound 0.316 µM, first compound 0.01 µM
# [44] = second compound 1 µM, first compound 0.000316 µM
# [45] = second compound 1 µM, first compound 0.001 µM
# [46] = second compound 1 µM, first compound 0.00316 µM
# [47] = second compound 1 µM, first compound 0.01 µM
# [48] = second compound 3.16 µM, first compound 0.000316 µM
# [49] = second compound 3.16 µM, first compound 0.001 µM
# [50] = second compound 3.16 µM, first compound 0.00316 µM
# [51] = second compound 3.16 µM, first compound 0.01 µM
# [52] = second compound 10 µM, first compound 0.000316 µM
# [53] = second compound 10 µM, first compound 0.001 µM
# [54] = second compound 10 µM, first compound 0.00316 µM
# [55] = second compound 10 µM, first compound 0.01 µM
# 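Further: compound exposure lasted 7 days before the readout.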
# 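Wherever viability, T/C is given: 100% = DMSO vehicle control viability.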
Compound,pIC50 [1],pIC50 [2],pIC50 [3],pIC50 [4],pIC50 [5],"viability, T/C [6] [%]","viability, T/C [7] [%]","viability, T/C [8] [%]","viability, T/C [9] [%]","viability, T/C [12] [%]","viability, T/C [13] [%]","viability, T/C [14] [%]","viability, T/C [15] [%]","viability, T/C [18] [%]","viability, T/C [19] [%]","viability, T/C [20] [%]","viability, T/C [24] [%]","viability, T/C [25] [%]","viability, T/C [30] [%]","viability, T/C [31] [%]",other results
COC(=O)c1ccc2c(C(=Nc3ccc(N(C)C(=O)CN4CCN(C)CC4)cc3)c3ccccc3)c(O)[nH]c2c1 + COc1cc2nc(C)nc(NC(C)c3cc(N)cc(C(F)(F)F)c3)c2cc1OC1CCOC1,5.85,6.02,6.29,6.20,> 7.50,88.1,97.5,69.8,71.1,77.5,68.3,55.2,50,73,95.2,57.6,95.6,88.3,7.41,2.82,"viability, T/C [10]: 0.65%; viability, T/C [11]: 0.3%; viability, T/C [16]: 0.3%; viability, T/C [17]: 0.83%; viability, T/C [21]: 33.5%; viability, T/C [22]: 0.48%; viability, T/C [23]: 0.34%; viability, T/C [26]: 78.2%; viability, T/C [27]: 32.5%; viability, T/C [28]: 0.32%; viability, T/C [29]: 0.26%; viability, T/C [32]: 0.58%; viability, T/C [33]: 0.41%; viability, T/C [34]: 0.41%; viability, T/C [35]: 0.26%"
CC(C)n1nc(-c2ccc3oc(N)nc3c2)c2c(N)ncnc21 + CC1OCC2(CCN(c3cnc(Sc4ccnc(N)c4Cl)c(N)n3)CC2)C1N,8.36,8.50,8.45,8.44,8.15,27.6,26.1,–,–,19.9,16.7,–,–,25.7,18.7,–,27,15.6,19.9,22.5,"viability, T/C [36]: 90%; viability, T/C [37]: 81.6%; viability, T/C [38]: 49.5%; viability, T/C [39]: 42.8%; viability, T/C [40]: 85.2%; viability, T/C [41]: 76.3%; viability, T/C [42]: 44.7%; viability, T/C [43]: 34.9%; viability, T/C [44]: 79.7%; viability, T/C [45]: 66.9%; viability, T/C [46]: 51.3%; viability, T/C [47]: 36.8%; viability, T/C [48]: 68.4%; viability, T/C [49]: 64.1%; viability, T/C [50]: 46.1%; viability, T/C [51]: 43.9%; viability, T/C [52]: 66.5%; viability, T/C [53]: 77.7%; viability, T/C [54]: 62.2%; viability, T/C [55]: 45.3%"
COc1cc(Nc2ncc3c(n2)-c2ccc(Cl)cc2C(c2c(F)cccc2OC)=NC3)ccc1C(=O)O + C=CC(=O)N1CCN(c2nc(=O)n(-c3c(C)ccnc3C(C)C)c3nc(-c4c(O)cccc4F)c(F)cc23)C(C)C1,< 5.00,< 5.00,< 5.00,< 5.00,< 5.00,102,114,122,99.9,101,93.8,98,108,129,109,107,126,109,136,111,"viability, T/C [10]: 96.8%; viability, T/C [11]: 103%; viability, T/C [16]: 95.2%; viability, T/C [17]: 72.7%; viability, T/C [21]: 127%; viability, T/C [22]: 106%; viability, T/C [23]: 83.3%; viability, T/C [26]: 103%; viability, T/C [27]: 110%; viability, T/C [28]: 107%; viability, T/C [29]: 88.4%; viability, T/C [32]: 118%; viability, T/C [33]: 127%; viability, T/C [34]: 119%; viability, T/C [35]: 90.3%"
O=C(c1cc(Cc2n[nH]c(=O)c3ccccc23)ccc1F)N1CCN(C(=O)C2CC2)CC1,–,–,–,–,–,–,–,–,–,–,–,–,–,–,–,–,–,–,–,–,"viability, T/C (compound 0.0316 µM): 83% [middle of 5 runs]; viability, T/C (compound 0.1 µM): 93% [middle of 5 runs]; viability, T/C (compound 0.316 µM): 87.8% [middle of 5 runs]; viability, T/C (compound 3.16 µM): 88.3% [middle of 5 runs]; viability, T/C (compound 10 µM): 80.5% [middle of 5 runs]; pIC50 (curve of compound): < 5.00"
COc1cc(Nc2ncc3c(n2)-c2ccc(Cl)cc2C(c2c(F)cccc2OC)=NC3)ccc1C(=O)O + CNCc1ccccc1-c1csc(C(C)Nc2nc(C)nc3cc(OC)c(OC)cc23)c1,< 5.00,< 5.00,> 7.50,> 7.50,> 7.50,78.9,87,85.5,72.3,122,106,154,86.6,18.7,36.5,18.4,0.23,0.31,0.26,0.16,"viability, T/C [10]: 87.4%; viability, T/C [11]: 62.1%; viability, T/C [16]: 77.5%; viability, T/C [17]: 64.2%; viability, T/C [21]: 26%; viability, T/C [22]: 25.9%; viability, T/C [23]: 25.6%; viability, T/C [26]: 0.33%; viability, T/C [27]: 0.21%; viability, T/C [28]: 0.2%; viability, T/C [29]: 0.35%; viability, T/C [32]: 0.23%; viability, T/C [33]: 0.16%; viability, T/C [34]: 0.16%; viability, T/C [35]: 0.31%"
CCN1CCN(Cc2ccc(Nc3ncc(F)c(-c4cc(F)c5nc(C)n(C(C)C)c5c4)n3)nc2)CC1 + CNCc1ccccc1-c1csc(C(C)Nc2nc(C)nc3cc(OC)c(OC)cc23)c1,6.83,7.15,8.17,> 8.50,> 8.50,56.5,56.6,43.2,28.6,46.4,49,38.5,3.67,28.7,32.2,1.49,0.08,0.09,0.18,0.15,"viability, T/C [38]: 76.8%; viability, T/C [39]: 82.9%; viability, T/C [42]: 75.2%; viability, T/C [43]: 60.7%; viability, T/C [46]: 60.1%; viability, T/C [47]: 43.3%; viability, T/C [21]: 0.15%; viability, T/C [50]: 0.13%; viability, T/C [51]: 0.12%; viability, T/C [26]: 0.05%; viability, T/C [27]: 0.14%; viability, T/C [54]: 4.51%; viability, T/C [55]: 0.16%; viability, T/C [32]: 1.23%; viability, T/C [33]: 0.18%"
Cn1ncnc1[C@H]1c2n[nH]c(=O)c3cc(F)cc(c23)N[C@@H]1c1ccc(F)cc1 + C=CC(=O)N1CCN(c2nc(=O)n(-c3c(C)ccnc3C(C)C)c3nc(-c4c(O)cccc4F)c(F)cc23)C(C)C1,< 7.00,< 7.00,< 7.00,< 7.00,< 7.00,102,93,–,–,98.9,72.7,–,–,94.6,80.8,–,90.3,89.8,96,102,"viability, T/C [36]: 106%; viability, T/C [37]: 98.3%; viability, T/C [38]: 81.8%; viability, T/C [39]: 92.3%; viability, T/C [40]: 110%; viability, T/C [41]: 110%; viability, T/C [42]: 101%; viability, T/C [43]: 105%; viability, T/C [44]: 117%; viability, T/C [45]: 107%; viability, T/C [46]: 93.1%; viability, T/C [47]: 100%; viability, T/C [48]: 97.7%; viability, T/C [49]: 106%; viability, T/C [50]: 98.8%; viability, T/C [51]: 85.1%; viability, T/C [52]: 117%; viability, T/C [53]: 103%; viability, T/C [54]: 84.3%; viability, T/C [55]: 99.8%"
